This assay addresses T1, recombinant human secreted phospholipase A2 (Homo sapiens, UniProt P14555).
T1 sequence (P14555 21-144): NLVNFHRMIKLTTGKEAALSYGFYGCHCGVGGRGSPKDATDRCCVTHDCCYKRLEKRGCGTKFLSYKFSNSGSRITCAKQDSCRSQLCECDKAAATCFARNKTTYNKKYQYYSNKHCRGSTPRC
The assay is described as follows: chromogenic assay of recombinant human secreted phospholipase A2 inhibition. Type of assay: biochemical. The note with it: diheptanoyl thio-PC substrate, pH 7.5, 40° C. for 30 minutes, absorbance at 405 nanometers, triplicate; read-out: Inhibition of human secreted PLA2 IC50 ± mean deviation. From the text: The following chromogenic assay procedure was used to identify and evaluate inhibitors of recombinant human secreted phospholipase A2. The assay described herein has been adapted for high volume screening using 96 well microtiter plates. A general description of this assay method is found in the article, “Analysis of Human Synovial Fluid Phospholipase A2 on Short Chain Phosphatidylcholine-Mixed Micelles: Development of a Spectrophotometric Assay Suitable for a Microtiterplate Reader”, by Laure J. Reynolds, Lori L. Hughes, and Edward A Dennis, Analytical Biochemistry, 204, pp. 190-197, 1992 (the disclosure of which is incorporated herein by reference):
RACEMIC DIHEPTANOYL THIO—PC
racemic 1,2-bis(heptanoylthio)-1,2-dideoxy-sn-glycero-3-phosphorylcholine
The reaction mixture thus obtained contains lmM diheptanoly thio-PC substrate, 0.29 mm Triton X-100™ detergent, and 0.12 mm DTMB in a buffered aqueous solution at pH 7.5.
1. Add 0.2 ml reaction mixture to all wells;
2. Add 10 ul test compound (or solvent blank) to appropriate wells, mix 20 seconds;
3. Add 50 nanograms of sPLA2 (10 microliters) to appropriate wells;
4. Incubate plate at 40° C. for 30 minutes;
5. Read absorbance of wells at 405 nanometers with an automatic plate reader.
All compounds were tested in triplicate. Typically, compounds were tested at a final concentration of 5 ug/ml. […] Lack of color development at 405 nanometers evidenced inhibition. Compounds initially found to be active were reassayed to confirm their activity and, if sufficiently active, IC50 values were determined. […] In all cases, % inhibition measured at 405 nanometers generated by enzyme reactions containing inhibitors relative to the uninhibited control reactions was determined. Each sample was titrated in triplicate and result values were averaged for plotting and calculation of IC50 values. IC50 were determined by plotting log concentration versus inhibition values in the range from 10-90% inhibition.

The IC50 is the concentration that gives 50% inhibition.

Molecules are shown by their SMILES.

In the case of `CCc1c(NC(N)=O)c2c(OCC(=O)O)cccc2n1Cc1ccccc1` [Example 1, [[2-Ethyl-1-(phenylmethyl)-3-ureido-1H-indol-4-yl]oxy]acetic acid], the IC50 turned out to be 0.049 µM.

Regarding `CCc1c(NC(N)=O)c2c(OCC(=O)O)cccc2n1Cc1ccccc1Br` [Example 8, [[2-ethyl-1-(2-bromo-phenylmethyl)-3-ureido-1H-indol-4-yl]oxy]acetic acid], the IC50 is 0.074 µM.

Take `CCc1c(NC(=O)C(N)=O)c2c(OCC(=O)O)cccc2n1Cc1ccccc1` [Example 6, [[2-ethyl-3-oxamide-1-(phenylmethyl)-1H-indol-4-yl]oxy]acetic acid]: the IC50 is 13 µM.

As for `CCc1c(NC(N)=O)c2c(OCC(=O)O)cccc2n1Cc1ccccc1-c1ccccc1` [Example 7, [[2-ethyl-1-(2-phenyl-phenylmethyl)-3-ureido-1H-indol-4-yl]oxy]acetic acid], the IC50 came out at 0.021 µM.

`CCc1c(NC(=O)CBr)c2c(OCC(=O)O)cccc2n1Cc1ccccc1` [Example 4, [[3-(Bromo)acetamido-2-ethyl-1-(phenylmethyl)-1H-indol-4-yl]oxy]acetic acid]: the IC50 is 45 µM.

Consider `CCc1c(NC(C)=O)c2c(OCC(=O)O)cccc2n1Cc1ccccc1` [Example 2, [[3-Acetamido-2-ethyl-1-(phenylmethyl)-1H-indol-4-yl]oxy]acetic acid], for which the IC50 turned out to be 65 µM.

`CCc1c(NC(N)=O)c2c(OCC(=O)O)cccc2n1Cc1ccccc1-c1ccc(F)cc1` [Example 9, [[2-ethyl-1-(2-(4-fluorophenyl)-phenylmethyl)-3-ureido-1H-indol-4-yl]oxy]acetic acid]: the IC50 turned out to be 0.017 µM.

Take `CCc1c(NC(N)=S)c2c(OCC(=O)O)cccc2n1Cc1ccccc1` [Example 5, [[2-Ethyl-1-(phenylmethyl)-3-thioureido-1H-indol-4-yl]oxy]acetic acid]: the IC50 worked out at 6.8 µM.

Turning to `CCc1c(NC(=O)C(F)(F)F)c2c(OCC(=O)O)cccc2n1Cc1ccccc1` [Example 3, [[3-trifluoroacetamido-2-ethyl-1-(phenylmethyl)-1H-indol-4-yl]oxy]acetic acid], the IC50 was 51 µM.

Values taken from patent publication US6451839B1, “Indole sPLA2 inhibitors” (Eli Lilly and Company, priority 1998, dated 2002).
